Experimental data from PMC6445168, “Design, synthesis and antimalarial activity of novel bis{N-[(pyrrolo[1,2-a]quinoxalin-4-yl)benzyl]-3-aminopropyl}amine derivatives” (Journal of Enzyme Inhibition and Medicinal Chemistry, 2017).
Counter-ions that a name gives are not always drawn.

Experiments:
[1] = Cytotoxicity evaluation, MTT assay; format: cell-based, human; details: human, HepG2 cells (hepatocarcinoma cell line, ATCC HB-8065); HepG2, 72 h incubation, mean ± SD of three independent experiments
Experimental: These assays were performed toward the human HepG2 cell line (HepG2 CC50). […] These cells express many of the hepatocyte-specific metabolic enzymes, thus enabling the cytotoxicity of tested product metabolites to be evaluated. […] Duplicate assays were performed for each sample. Each plate-well was then microscope-examined for detecting possible precipitate formation before the medium was aspirated from the wells. 100 μL of MTT solution (0.5 mg/mL in medium without FCS) were then added to each well. […] After this time, the MTT solution was removed and DMSO (100 μL) was added to dissolve the resulting blue formazan crystals. Plates were shaken vigorously (300 rpm) for 5 minutes. The absorbance was measured at 570 nm with 630 nm as reference wavelength spectrophotometer using a BIO-TEK ELx808 Absorbance Microplate Reader. DMSO was used as blank and doxorubicin (Sigma Aldrich) as positive control. Cell viability was calculated as percentage of control (cells incubated without compound). The 50% cytotoxic concentration was determined from the dose-response curve by using the TableCurve 2D V5.0 software (Systat Software, San Jose, CA).

[2] = system: P. falciparum CQ-sensitive strain 3D7; assay: In vitro antiplasmodial activity, SYBR Green I fluorescence-based method, 3D7 strain; format: cell-based, Plasmodium falciparum; details: for IC50: Plasmodium falciparum, 3D7, 48 h, chloroquine-sensitive strain 3D7, 48 h incubation, read-out: P. falciparum strains IC50 values, 3D7; for Selectivity Index HepG2/3D7: ratio CC50 HepG2 / IC50 3D7
Experimental: (§1) The in vitro antiplasmodial activities were tested over concentrations ranging from 39 nM to 40 μM against culture-adapted Plasmodium falciparum reference strains 3D7 and W2. […] The parasites were cultivated in RPMI medium (Sigma-Aldrich, Lyon, France) supplemented with 0.5% Albumax I (Life Technologies corporation, Paisley, United Kingdom), hypoxanthine (Sigma-Aldrich), gentamicin (Sigma-Aldrich), and human erythrocytes and were incubated at 37 °C in a candle jar, as described previously. The P. falciparum drug susceptibility test was carried out in 96-well flat bottom sterile plates under a final volume of 250 μL. After a 48 h incubation with the drugs, quantities of DNA in treated and control cultures of parasites in human erythrocytes were compared according to the SYBR Green I (Sigma-Aldrich) fluorescence-based method[38]^,[39]. Briefly, after incubation, plates were frozen at -20 °C until use. They were then left to thaw for 2 h at room temperature and 100 μL of the homogenized culture were transferred to 96-well flat bottom sterile black plates (Nunc Inc) already containing 100 μL of the SYBR Green I lysis buffer (2xSYBR Green, 20 mM Tris base pH 7.5, 5 mM EDTA, 0.008% w/v saponin, 0.08% w/v Triton X-100). […] Plates were incubated for 1 h at room temperature and then read on a fluorescence plate reader (Tecan, Austria) using excitation and emission wavelengths of 485 and 535 nm, respectively.

[3] = system: L. donovani (MHOM/IN/00/DEVI) promastigotes; assay: In vitro antileishmanial activity on promastigotes, MTT assay; format: cell-based; details: Leishmania donovani, 72 h incubation, mean ± SD of three independent experiments
Experimental: L. donovani (MHOM/IN/00/DEVI) used in this study was provided by the CNR Leishmania (Montpellier, France). The effects of the tested compounds on the growth of L. donovani (MHOM/IN/00/DEVI)promastigotes were assessed by MTT assay[41] .Briefly, promastigotes in log-phase in Schneider′s medium supplemented with 20% fetal calf serum (FCS), 2 mM L-glutamine and antibiotics (100 U/mL penicillin and 100 μg/mL streptomycin), were incubated at an average density of 10^6 parasites/mL in sterile 96-well plates with various concentrations of compounds dissolved in DMSO (final concentration less than 0.5% v/v), in duplicate. Appropriate controls treated by DMSO and pentamidine or amphotericin B (reference drugs purchased from Sigma-Aldrich) were added to each set of experiments. After a 72 h incubation period at 27 °C, parasite metabolic activity was determined. Each plate-well was then microscope-examined for detecting possible precipitate formation. 20 μL of MTT 3–(4,5-dimethylthiazol-2-yl)-2,5-diphenyltetrazolium bromide) solution (5 mg/mL) were added to each well followed by incubation for another 4 h. The enzyme reaction was then stopped by addition of 100 μL of 50% isopropanol – 10% sodium dodecyl sulfate[42] .Plates were shaken vigorously (300 rpm) for 10 minutes and the absorbance measured in a plate reader at 570 nm in a BIO-TEK ELx808 Absorbance Microplate Reader. […] IC50 were calculated by non-linear regression analysis processed on doseresponse curves, using TableCurve 2D V5.0 software. IC50 values represent the mean value calculated from three independent experiments.

[4] = system: P. falciparum CQ-resistant strain W2; assay: In vitro antiplasmodial activity, SYBR Green I fluorescence-based method, W2 strain; format: cell-based, Plasmodium falciparum; details: for IC50: Plasmodium falciparum, chloroquine-resistant strain W2, 48 h incubation, read-out: P. falciparum strains IC50 values, W2; for Selectivity Index HepG2/W2: ratio CC50 HepG2 / IC50 W2
Experimental: as §1

Row | melting point | IC50 [2] | IC50 [3] | IC50 [4] | Structure (SMILES) | CC50 at 72 h [1] | Selectivity Index HepG2/3D7 [2] | Selectivity Index HepG2/W2 [4]
1 | 192 to 194 °C | – | – | – | COc1ccc2c(c1)nc(-c1ccc(CNCCCN(CCCNCc3ccc(-c4nc5cc(OC)ccc5n5cccc45)cc3)CCCNCc3ccc(-c4nc5cc(OC)ccc5n5cccc45)cc3)cc1)c1cccn12 (as salt: ammonium) [1s, Tris{N-[4–(7-methoxypyrrolo[1,2-a]quinoxalin-4-yl)benzyl]-3-aminopropyl}amine] | – | – | –
2 | 141 to 144 °C | – | – | – | COc1ccc2nc(-c3cccc(CNCCOCCOCCOCCNCc4cccc(-c5nc6ccc(OC)cc6n6cccc56)c4)c3)c3cccn3c2c1 (as salt: ammonium) [1u, N,N′-[oxybis(2,1-ethanediyloxy-2,1-ethanediyl)]bis-3–(8-methoxypyrrolo[1,2-a]quinoxalin-4-yl)benzylamine] | – | – | –
3 | > 260 °C | – | – | – | c1ccc2c(c1)nc(-c1ccc(CNCCCN3CCN(CCCNCc4ccc(-c5nc6ccccc6n6cccc56)cc4)CC3)cc1)c1cccn12 (as salt: ammonium) [1c, Bis{N-[4-(pyrrolo[1,2-a]quinoxalin-4-yl)benzyl]-3-aminopropyl}piperazine] | – | – | –
4 | 234 to 237 °C | – | – | – | COc1ccc2nc(-c3cccc(CNCCCN4CCN(CCCNCc5cccc(-c6nc7ccc(OC)cc7n7cccc67)c5)CC4)c3)c3cccn3c2c1 (as salt: ammonium) [1p, Bis{N-[3–(8-methoxypyrrolo[1,2-a]quinoxalin-4-yl)benzyl]-3-aminopropyl}piperazine] | – | – | –
5 | > 260 °C | – | – | – | c1ccc2c(c1)cc1c(-c3ccc(CNCCCN4CCN(CCCNCc5ccc(-c6nc7ccccc7n7c6cc6ccccc67)cc5)CC4)cc3)nc3ccccc3n12 (as salt: ammonium) [1q, Bis{N-[4-(indolo[1,2-a]quinoxalin-6-yl)benzyl]-3-aminopropyl}piperazine] | – | – | –
6 | 218 to 220 °C | – | – | – | CCOc1ccn2c1c(-c1ccc(CNCCCN3CCN(CCCNCc4ccc(-c5nc6ccccc6n6ccc(OCC)c56)cc4)CC3)cc1)nc1ccccc12 (as salt: ammonium) [1k, Bis{N-[4–(3-ethoxypyrrolo[1,2-a]quinoxalin-4-yl)benzyl]-3-aminopropyl}piperazine] | – | – | –
7 | – | 0.2 ± 0.04 µM | ≥ 10 µM | 0.29 ± 0.05 µM | COc1ccc2c(c1)nc(-c1ccc(CNCCCN(CCCNCc3ccc(-c4nc5cc(OC)ccc5n5cccc45)cc3)CCCNCc3ccc(-c4nc5cc(OC)ccc5n5cccc45)cc3)cc1)c1cccn12 [1s, Tris{N-[4–(7-methoxypyrrolo[1,2-a]quinoxalin-4-yl)benzyl]-3-aminopropyl}amine] | 1.66 ± 0.5 µM | 8.30 | 5.72
8 | – | 0.18 ± 0.02 µM | 3.51 ± 0.1 µM | 0.206 ± 0.03 µM | COc1ccc2nc(-c3cccc(CNCCCN(C)CCCNCc4cccc(-c5nc6ccc(OC)cc6n6cccc56)c4)c3)c3cccn3c2c1 [1o, Bis{N-[3–(8-methoxypyrrolo[1,2-a]quinoxalin-4-yl)benzyl]-3-aminopropyl}methylamine] | 1.5 ± 0.9 µM | 8.33 | 7.28
9 | – | 0.19 ± 0.01 µM | ≥ 10 µM | 0.09 ± 0.01 µM | CCOc1ccn2c1c(-c1ccc(CNCCCN3CCN(CCCNCc4ccc(-c5nc6ccccc6n6ccc(OCC)c56)cc4)CC3)cc1)nc1ccccc12 [1k, Bis{N-[4–(3-ethoxypyrrolo[1,2-a]quinoxalin-4-yl)benzyl]-3-aminopropyl}piperazine] | 1.48 ± 0.5 µM | 7.79 | 16.44
10 | – | 0.25 ± 0.04 µM | 2.07 ± 0.02 µM | 0.44 ± 0.11 µM | COc1cccc2nc(-c3ccc(CNCCCN(C)CCCNCc4ccc(-c5nc6cccc(OC)c6n6cccc56)cc4)cc3)c3cccn3c12 [1h, Bis{N-[4–(9-methoxypyrrolo[1,2-a]quinoxalin-4-yl)benzyl]-3-aminopropyl}methylamine] | 2.44 ± 0.4 µM | 9.76 | 5.54
